In brackets after ≈: the same amount, converted by molar mass.
Tests used:
[1] = system: IFNγ-induced NO production in RAW264.7 macrophages; assay: Suppression of IFNγ-induced NO production (Griess reagent); assay type: cell-based, mouse; settings: Mus musculus; RAW264.7, 20 ng/ml IFNγ 24 h, 2 h pre-treatment
Protocol: (§1) FIGS. 1-8 and 32-34. Inhibition of NO Production. RAW264.7 macrophages were pre-treated with DMSO or drugs at various concentrations (nM) for 2 hours, then treated with 20 ng/ml IFNγ for 24 hours. NO concentration in media was determined using a Griess reagent system; cell viability was determined using WST-1 reagent.
(§2) Nitric Oxide production and cell viability. RAW264.7 macrophages were pre-treated with DMSO or drugs for 2 hours, then treated with recombinant mouse IFNγ (Sigma) for 24 hours. NO concentration in media was determined using the Griess reagent system (Promega). Cell viability was determined using WST-1 reagent (Roche).

[2] = system: RAW264.7 macrophages; assay: Cell viability, WST-1 reagent; assay type: cell-based, mouse; settings: Mus musculus, RAW264.7 (20 ng/ml IFNγ)
Protocol: as §1, §2

[3] = Aqueous solubility determination (Multiscreen solubility filter plate, UV/vis); assay type: physicochemical; settings: universal aqueous buffer, pH 7.4, aqueous buffer, kinetic from dmso stock, universal aqueous buffer pH 7.4, 90 min, room temperature
Protocol: Aqueous Solubility Determination. The following procedure was used to obtain the aqueous solubility results summarized in Example 8. Step 1. Determination of optimal UV/vis wavelengths and generation of standard curves for a compound of interest: • (1) For eight standard calibration curves (one plate), prepare 34 mL of 50:50 (v:v) universal buffer:acetonitrile in a 50 mL tube. • (2) Using a multichannel pipet, dispense (in μL) the buffer:acetonitrile in a deep well plate as follows:
• (6) Cover plate with lid and shake (200-300 rpm) at room temperature for 20 minutes. • (7) Mix all wells by pipetting up and down 10 times. • (8) Transfer 120 μL from each well to a UV transparent plate. Cover and shake for 3-5 minutes. Remove any bubbles in the wells using a pipet. • (9) Read from 220 nm to 500 nm at 10 nm increments on a spectrophotometer (e.g., SpectraMax®).
Step 2. Compound Solubility Testing Procedures Using the Millipore™ Multiscreen® Solubility Filter Plate.
Universal Aqueous Buffer: • (a) To prepare 500 mL of universal buffer, add the following: 250 mL Nanopure water; 1.36 mL (45 mM) ethanolamine; 3.08 g (45 mM) potassium dihydrogen phosphate; 2.21 g (45 mM) potassium acetate; thoroughly mix. • (b) Adjust pH to 7.4 with HCl and q.s. to 500 mL with 0.15 M KCl. • (c) Filter to remove particulates and reduce bacterial growth. • (d) Store at 4° C. in the dark.
Solubility Protocol: • (a) Add 285 μL of Universal Aqueous Buffer to desired wells of the Millipore™ Multiscreen® Solubility filter plate. • (b) Add 15 μL of 10 mM compound in DMSO to the appropriate wells. Add 15 μL of 100% DMSO only to 6 wells of the filter plate for blanks. • (c) Using a multichannel pipet, mix wells by pipetting up and down 10 times. Be careful not to touch the filters in the plate with the tips. • (d) Cover and gently shake (200-300 rpm) filter plate for 90 minutes at room temperature. • (e) Vacuum filter the aqueous solution from the Multiscreen® solubility filter plate into a polypropylene V-bottom plate. • (f) Transfer 60 μL of filtrate to a UV transparent plate (Greiner® UV-Star Analysis Plate). • (g) Add 60 μL of acetonitrile to each well and mix by pipetting up and down 10 times. • (h) Cover and gently shake for 3-5 minutes. Remove any bubbles with a pipet. • (i) Measure the absorbance of each well in the plate on the spectrophotometer (UV/vis) at the desired wavelength. For compounds in a plate with different absorbance peaks, set the spectrophotometer to read a spectrum (e.g., from 220 nm to 460 nm). • (j) Identify concentration using measured absorbance for each compound and the predetermined standard curve (see Step 1).

[4] = system: HO-1; assay: Nrf2 target gene induction, HO-1 mRNA (qPCR); assay type: cell-based, human; settings: MDA-MB-435 cells, 250 nM; fold induction above DMSO control
Protocol: (§3) FIGS. 17-20. Induction of HO-1. MDA-MB-435 human melanoma cells were treated with vehicle (DMSO) or the indicated compounds and concentrations for 16 hours. HO-1 mRNA levels were quantified using qPCR and were normalized relative to a DMSO-treated sample run in parallel. Values are averages of duplicate wells.
as §3, with “FIG. 21.” for “FIGS. 17-20.”, “HO-1, TrxR1 and γ-GCS.” for “HO-1.”, “HO-1, thioredoxin reductase-1 (TrxR1), and γ-glutamylcysteine synthetase (γ-GCS)” for “HO-1”
as §3, with “Nrf2 target gene induction.” for “FIGS. 17-20. Induction of HO-1.”, “HO-1, thioredoxin reductase-1 (TrxR1), γ-glutamylcysteine synthetase (γ-GCS), and ferritin heavy chain” for “HO-1”, “wells. Primer sequences are as follows.” for “wells.”

[5] = system: γ-glutamylcysteine synthetase (γ-GCS); assay: Nrf2 target gene induction, γ-GCS mRNA (qPCR); assay type: cell-based, human; settings: MDA-MB-435 cells, 250 nM; fold induction above DMSO control
Protocol: as §3, with “FIG. 21.” for “FIGS. 17-20.”, “HO-1, TrxR1 and γ-GCS.” for “HO-1.”, “HO-1, thioredoxin reductase-1 (TrxR1), and γ-glutamylcysteine synthetase (γ-GCS)” for “HO-1”
as §3, with “FIG. 23.” for “FIGS. 17-20.”, “γ-GCS.” for “HO-1.”, “γ-glutamylcysteine synthetase (γ-GCS)” for “HO-1”
as §3, with “Nrf2 target gene induction.” for “FIGS. 17-20. Induction of HO-1.”, “HO-1, thioredoxin reductase-1 (TrxR1), γ-glutamylcysteine synthetase (γ-GCS), and ferritin heavy chain” for “HO-1”, “wells. Primer sequences are as follows.” for “wells.”

[6] = system: NQO1; assay: Nrf2 target gene induction, NQO1; assay type: cell-based, human; settings: MDA-MB-435 cells, 250 nM; fold induction above DMSO control
[7] = Triterpenoid levels in mouse brain after feeding in diet (LC/MS); assay type: in vivo; settings: CD-1 mice, 200 or 400 mg/kg diet for 3.5 days
Protocol: CD-1 mice were fed either 200 or 400 mg/kg diet of either TP-319 or TP-500 for 3.5 days, and TP levels in the brains of the mice were analyzed by LC/MS. The structures of TP-319 and TP-500 are shown below.

SMILES | IC50 [1] | IC50 [2] | solubility at 90 min [3] | further results
COC(=O)[C@]12CCC(C)(C)C[C@H]1[C@H]1[C@@H](O)C[C@@H]3[C@@]4(C)C=C(C#N)C(=O)C(C)(C)[C@@H]4CC[C@@]3(C)[C@]1(C)CC2 [Compound 63219] | ~0.15 µM | > 0.2 µM | 13.6 µM (≈ 6.92 µg/mL) | 
CC1(C)CC[C@]2([C@@H](O)CO)CC[C@]3(C)[C@H](C(=O)C[C@@H]4[C@@]5(C)C=C(C#N)C(=O)C(C)(C)[C@@H]5CC[C@]43C)[C@@H]2C1 [Compound 63221] |  |  | 8.78 µM (≈ 4.48 µg/mL) | 
CC1(C)CC[C@]2(CNC(=O)C(F)(F)F)CC[C@]3(C)[C@H](C(=O)C[C@@H]4[C@@]5(C)C=C(C#N)C(=O)C(C)(C)[C@@H]5CC[C@]43C)[C@@H]2C1 [Compound 63226] |  |  | 0.71 µM (≈ 0.408 µg/mL) | 
CC1(C)CC[C@]2(CCO)CC[C@]3(C)[C@H](C(=O)C[C@@H]4[C@@]5(C)C=C(C#N)C(=O)C(C)(C)[C@@H]5CC[C@]43C)[C@@H]2C1 [Compound 63231] |  |  | 1.23 µM (≈ 0.607 µg/mL) | 
Cc1cc(CNC[C@]23CCC(C)(C)C[C@H]2[C@H]2C(=O)C[C@@H]4[C@@]5(C)C=C(C#N)C(=O)C(C)(C)[C@@H]5CC[C@@]4(C)[C@]2(C)CC3)no1 [Compound 63232] |  |  | 0.75 µM (≈ 0.43 µg/mL) | 
CC1(C)CC[C@]23CC[C@@]4(C)[C@]5(C)CC[C@H]6C(C)(C)C(=O)C(C#N)=C[C@]6(C)[C@H]5CC(=O)[C@@]4([C@@H]2C1)N(CC(F)(F)F)C3=O [Compound 63237] | ~0.08 µM | > 0.2 µM | 5.16 µM (≈ 2.96 µg/mL) | HO-1 induction [4]: 3 fold; γ-GCS induction [5]: 6.4 fold; NQO1 induction [6]: 2.3 fold
CC1(C)CC[C@]2(C#N)CC[C@]3(C)[C@H](C(=O)CC4[C@@]5(C)C=C(C#N)C(=O)C(C)(C)[C@@H]5CC[C@]43C)[C@@H]2C1 (stereo partly drawn) [Compound 63252, (4aR,6aR,6bR,8aS,12aS,12bR,14bR)-4,4,6a,6b,11,11,14b-heptamethyl-3,13-dioxo-3,4,4a,5,6,6a,6b,7,8,8a,9,10,11,12,12a,12b,13,14,14a,14b-icosahydropicene-2,8a-dicarbonitrile] | ~0.005 µM | > 0.2 µM |  | HO-1 induction [4]: 5 fold; NQO1 induction [6]: 3 fold
CC1(C)CC[C@]2(C(=O)NCC(F)(F)F)CC[C@]3(C)[C@H](C(=O)C=C4[C@@]5(C)C=C(C#N)C(=O)C(C)(C)[C@@H]5CC[C@]43C)[C@@H]2C1 [TP-500] |  |  |  | level detected in mouse brain compared with CDDO-EA (TP-319) [7]: Higher Levels
